Values quoted from earlier work, collected in patent publication US20070231358A1, “INTRAVAGINAL TREATMENT OF VAGINAL INFECTIONS WITH METRONIDAZOLE COMPOSITIONS” (Tolmar, Inc., priority 2004, published 2007).
Read-outs that look alike come from different tables or passages of the source.

Columns and labels:
bacterial vaginosis [1] = settings: oral route; 400 to 500 mg twice daily for three to seven days or 2 grams single dose
bacterial vaginosis [2] = settings: for Cured patients out of 19: four weeks after initiation; for Cure rate (%): four weeks after initiation of therapy
[3] = after a single oral dose of 2 grams
[4] = oral 400 mg morning and evening for seven days
[5] = vaginal insert 500 mg every evening for seven days

Concentration of metronidazole in the vaginal fluid [3]: low concentration
SMILES: Cc1ncc([N+](=O)[O-])n1CCO [metronidazole, 1-(2-hydroxyethyl)-2-methyl-5-nitroimidazole]
Cure rates (bacterial vaginosis [1]): 80-90% | Side effects (bacterial vaginosis [2]; intravaginal use as the 500 mg insert): No side effects were reported | Cured patients out of 19 (bacterial vaginosis [2]; [4]): 14 | Cure rate (%) (bacterial vaginosis [2]; [4]): 74% | Cured patients out of 19 (bacterial vaginosis [2]; [5]): 15 | Cure rate (%) (bacterial vaginosis [2]; [5]): 79% | Lactate-producing microorganisms (Lactobacilli and aerobic Streptococci) after treatment (bacterial vaginosis [2]; vaginal versus oral treatment): found more frequently after vaginal than after oral treatment
